Legend:
[1] = tested on: isogenic human fibroblast cell lines (untransformed, partially transformed, fully transformed); experiment: Dose-dependent growth inhibition of three isogenic human fibroblast cell lines with increasing neoplastic transformation; type: cell-based; settings: 3-day assay, Hoechst 33342
Text: To determine if tumor-specific growth inhibitory activity of SNX9 class compounds could be due to the inhibition of a specific CDK, we took advantage of the availability of selective inhibitors for some of the CDK proteins. Among these enzymes, CDK1, CDK2 and CDK4/CDK6 (the latter two CDKs are closely related to each other and interact with the same class of cyclins), have been used as targets for developing specific inhibitors, with potential anticancer activity. In contrast, CDK3 has not been used as a target for developing selective inhibitors. We have obtained commercially available selective inhibitors of CDK1 (CGP74514A) (Calbiochem Cat. No. 217696), CDK2 (CVT-313) (Calbiochem Cat. No. 238803), and CDK4 (NSC 625987) (Calbiochem Cat. No. 219477), and tested them, along with a broad-specificity CDK inhibitor flavopiridol, and with SNX14, SNX9 and SNX9-1, for growth inhibition of normal and transformed fibroblasts.
This analysis was done using a set of three isogenic human fibroblast cell lines with increasing degrees of neoplastic transformation (immortal but untransformed, partially transformed, and fully transformed).

[2] = tested on: CDKI-responsive endogenous genes induced by p21; experiment: Q-PCR of CDKI-responsive endogenous genes, HT1080 cells with IPTG-inducible p21; type: cell-based, human; settings: 10 μM SNX9, 20 μM SNX9-1; normalized to β-actin
Method: (§1) For this purpose, we developed real-time RT-PCR (Q-PCR) assays for measuring RNA levels of eleven CDKI-responsive genes. This assay uses a 96-well TurboCapture RNA extraction kit (Qiagen), in which oligo(dT) is covalently bound to the surface of the wells to allow mRNA isolation from cell lysate and cDNA synthesis in the same wells. 5 units/μl of SuperScript III reverse transcriptase (Invitrogen) was added to the wells for 1 hr for cDNA synthesis at 50° C., and 2 μl of the resulting cDNA was then used for Q-PCR analysis using SYBR Green PCR Master Mix (ABI) with ABI 7900HT Q-PCR machine.
(§2) This effect argues that the molecular target of these compounds is not a specific CDKI but rather a common downstream mediator of the transcription-inducing effects of different CDKI.

[3] = tested on: normal fibroblasts (WI-38, BJ-EN); experiment: 3-day growth inhibition assay (Hoechst 33342), normal cells; type: cell-based, human; settings: 5 μM; 3 days
Method: (§3) The assays were carried out in 96-well plates, in triplicates; the plated cell numbers for each cell line were determined in preliminary experiments to assure exponential growth over the 3-day period of the assay. The cell numbers were measured by staining DNA of attached cells with Hoechst 33342, and the results for each dose were expressed as the decrease in cell number relative to untreated cells. For some of the tumor/normal cell line combinations, the assays were repeated using CellTiter-Glo viability assay (Promega), with the same results.

[4] = tested on: HMEC primary cultures, MCF-7 and MDA231; experiment: 3-day growth inhibition assay (Hoechst 33342), normal mammary epithelial cells vs breast carcinoma lines; settings: 3-day assay; HMEC vs MCF-7 and MDA231
Method: as §3

[5] = tested on: CDKI-responsive endogenous genes induced by p16; experiment: Q-PCR of CDKI-responsive endogenous genes, HT1080 cells with IPTG-inducible p16; type: cell-based, human; settings: 10 μM SNX9; normalized to β-actin
Method: as §1, §2

[6] = Plasma level of SNX9 one hour after IV injection, HPLC analysis; type: in vivo; settings: NCr nude, mouse, one hour after IV injection of 70 mg/kg, two mice
Method: In order to determine the ability of SNX9 to remain in the blood of mice at detectable levels, we analyzed its plasma level one hour after IV injection. Two control mice were uninjected, and two mice were injected IV with 70 mg/kg SNX9 (dissolved in PBS). After one hour, the mice were euthanized and the blood collected by cardiac puncture. After plasma was prepared from the whole blood it was frozen and stored at −70° C. The frozen plasma was thawed and 100 μl was cleared of plasma protein by precipitation with 4 volumes of 100% ethanol at −20° C. for one hour. Under these conditions, SNX9 is recovered quantitatively in the ethanol soluble fraction with a minimum of plasma contamination.
The first assay was HPLC analysis. For this assay, the ethanol soluble fraction was dried under vacuum and re-dissolved in 100 μl 30% acetonitrile 0.1% trifluoroacetic acid (TFA). 4 μl of the ethanol extracted SNX9 was applied to a C18 HPLC column and eluted isocratically using a buffer of 30% acetonitrile 0.1% TFA at a flow rate of 0.3 ml/min. The elution of SNX9 was monitored at its absorption maximum wavelength of 280 nm. […]
The second assay was a biological test for cytotoxicity. […] After 72 hours the growth inhibition was measured by Hoechst staining of the cell lysate in each well of the 96 well tissue culture plate, prepared as previously described.

[7] = tested on: NFκB p50 and p65 subunits; experiment: TransAM NFκB p65 and p50 Chemi Transcription Factor Assay (oligonucleotide binding); type: cell-based; settings: TNFα-induced or basal
Text: We also tested if these compounds could act as the inhibitors of NFκB, by measuring cellular levels of p50 or p65 subunits binding oligonucleotides containing NFκB consensus binding site, using ACTIVE MOTIF TransAM™ NFκB p65 Chemi and NFκB p50 Chemi Transcription Factor Assay Kits.

[8] = tested on: p21-induced transcription from the NK4 promoter; experiment: NK4 promoter-firefly luciferase reporter in HT1080 p21-9 cells; type: cell-based, human; settings: 20 μM SNX-9
Method: In this experiment, HT1080 p21-9 cells that express firefly luciferase from a CDKI-responsive promoter of cellular NK4 gene were cultured with IPTG for two days, which is sufficient for near-maximal induction of NK4 (Poole et al., supra).

HCT116 colon carcinoma = experiment: 3-day growth inhibition assay (Hoechst 33342), HCT116; type: cell-based; settings: Homo sapiens, HCT-116, 72 h, 3 days, read-out: growth inhibition (decrease in cell number relative to untreated cells)
Method: as §3

Row | Structure (SMILES) | selectivity of growth inhibition for transformed cell lines relative to immortal but untransformed fibroblasts [1] | induction of CDKI-responsive endogenous genes by p21 (ratio of RNA levels with and without IPTG) [2] | growth inhibition of normal cells [3] | tumor selectivity of growth inhibition, normal vs transformed mammary cells [4] | induction of CDKI-responsive endogenous genes by p16 (ratio of RNA levels with and without IPTG) [5] | concentration at 1 h [6] [µM] | NFκB activity (p50 or p65 binding to NFκB consensus oligonucleotide) [7] | induction of NK4-luciferase by p21, compound added after two days of IPTG treatment (reversal) [8] | induction of NK4-luciferase by p21, compound added simultaneously with IPTG [8] | inhibition at 5 µM (HCT116 colon carcinoma) [%]
1 | NCCc1c[nH]c2c(Cl)cc(Cl)cc12 [SNX9-1] | pronounced selectivity for partially transformed or fully transformed cell lines | partially inhibit the induction of all the tested genes | – | – | – | – | – | – | – | –
2 | Cc1[nH]c2c(Cl)cccc2c1CCN [SNX9] | pronounced selectivity for partially transformed or fully transformed cell lines | partially inhibit the induction of all the tested genes | no effect on normal cells | clear tumor selectivity | partially inhibit the induction of all the tested genes | ~250 | no significant effect | reverses CDKI-induced transcription | decreased the induction of NK4-luciferase by p21 | ~100

— patent US20080200531A1, “CDKI pathway inhibitors as inhibitors of tumor cell growth” (priority 2006, published 2008)
